# Experimental data as given in patent publication US20230250436A1, “NUCLEIC ACID THAT INTERACTS WITH A RECEPTOR FOR ENDOCRINE DISRUPTING CHEMICALS AND USE THEREOF” (KUMIAI CHEMICAL INDUSTRY CO., LTD., priority 2020, published 2023).
# Test system: juvenile hormone receptor of Daphnia magna (DampaMET)
# Test: Yeast reporter (β-galactosidase) assay, transformants with DampaMET and DampaSRC
# Type: cell-based
# Experimental: Subsequently, a reporter plasmid prepared by inserting the nucleotide sequence shown in SEQ ID NO: 2 into a yeast comprising the DampaMET plasmid and the DampaSRC plasmid introduced thereinto by the lithium acetate method. Thus, Yeast 1 of Invention was obtained. In the same manner, Yeasts 2 to 38 of Invention each comprising the response element according to the present invention and Control yeasts 1 to 9 shown in Table 3 were prepared.
# With the use of the Yeast 1 of Invention, reporter activity to methyl farnesoate as a juvenile hormone substance was measured. At the outset, the Yeast 1 of Invention was subjected to pre-culture at 30° C. for 18 hours using the pre-culture medium shown in Table 1 until the turbidity (O.D. 595) of the pre-culture medium reached approximately 0.1. The solution of the pre-cultured cells (10 μl) and 1 μl of the solution of methyl farnesoate diluted to various concentrations with dimethyl sulfoxide (DMSO) were mixed with 90 μl of the main culture solution shown in Table 4 in a 96-well plate, and the mixture was subjected to static culture at 30° C. for 18 hours to prepare a reaction solution. The resultant was designated as a test group.
# A reaction solution prepared with the addition of 1 μl of DMSO instead of a diluted methyl farnesoate solution was designated as a control group. Fractions of 10 μl each were collected from the reaction solutions and dispensed into each well of another 96-well plate. Thereafter, 100 μl of an assay reagent comprising a lytic solution (Z buffer: 60 mM Na2HPO4, 40 mM NaH2PO4, 1 mM MgCl2, 10 mM KCl, 2 mM dithiothreitol, 0.20% N-lauroylsarcosine sodium salt) mixed with 1 mg/ml ONPG (orthonitrophenylgalactopyranoside) was dispensed into each well, and the reaction was allowed to proceed at 37° C. for 30 minutes. Thereafter, the absorbance (O.D. 405) and the turbidity (O.D. 595) of the reaction solutions were assayed at the wavelength of 405 nm using a microplate reader (tradename: iMark microplate reader, Bio-Rad Laboratories). The increase of induction was calculated in accordance with the following formula.
# The increase of induction is described in Ito-Harashima S et al., FEBS Open Bio., 7 (7): pp. 995-1008, 2017. When the increase of induction is positive, the transformant is determined to have reporter activity to the substance tested. The test was performed once or repeated 3 times, 5 times, or 15 times, and the average increase of induction was calculated. The control yeast 1 was treated in the same manner and reporter activity was compared.
# In the same manner as in Test Example 1, the Yeasts 2, 3, 4, 5, 6, 7, 9, 10, 11, 12, 13, 14, 15, 16, 17, 18, 19, and 20 of Invention were subjected to assays of reporter activity to methyl farnesoate. The test was performed in accordance with Test Example 1, and reporter activity of the yeasts indicated above was compared with that of the control yeasts 2, 3, and 4.
# With the use of the control yeast 7 comprising a different nucleotide sequence of the C-box (CACGCG) in the response element, the control yeast 8 comprising a different nucleotide sequence of the E-box (CACGTG), and the control yeast 9 comprising different nucleotide sequences of the C-box and the E-box from the relevant nucleotide sequences of the Yeast 4 of Invention, the influence of a core sequence on reporter activity to methyl farnesoate was evaluated. The test was performed in accordance with Test Example 1.
# With the use of the Yeast 4 and the Yeast 8 of the present Invention, reporter activity to sex hormones; i.e., 17β-estradiol and testosterone, insect juvenile hormones; i.e., juvenile hormone III, and chemical substances suspected of having endocrine disrupting actions, such as 4-nonyl phenol, bisphenol A, 1,1,1-trichloro-2,2-bis(4-chlorophenyl)ethane (DDT), 2,2-bis(4-chlorophenyl)-1,1-dichloroethylene (DDE), and dieldrin, was assayed. The test was performed in accordance with Test Example 1. All the test substances were treated at 10 μM. […]
structure (smiles),measurement,setting,value
COC(=O)/C=C(\C)CC/C=C(\C)CCC=C(C)C [methyl farnesoate],increase of induction,"Control yeast 1 (cacgcggcggcacgtg x1), 100 pM",0.01
same,increase of induction,"Control yeast 1 (cacgcggcggcacgtg x1), 1 nM",0.00
same,increase of induction,"Control yeast 2 (cacgcggcggcacgtg x2), 10 nM",−0.29
same,increase of induction,"Control yeast 2 (cacgcggcggcacgtg x2), 100 nM",−0.27
same,increase of induction,"Control yeast 2 (cacgcggcggcacgtg x2), 1 μM",−0.34
same,increase of induction,"Control yeast 2 (cacgcggcggcacgtg x2), 10 μM",−0.21
same,increase of induction,"Control yeast 2 (cacgcggcggcacgtg x2), 100 μM",−0.14
same,increase of induction,"Control yeast 3 (cacgcggcggcacgtg x3), 10 nM",−0.12
same,increase of induction,"Control yeast 3 (cacgcggcggcacgtg x3), 100 nM",−0.21
same,increase of induction,"Control yeast 3 (cacgcggcggcacgtg x3), 1 μM",−0.27
same,increase of induction,"Control yeast 3 (cacgcggcggcacgtg x3), 10 μM",−0.17
same,increase of induction,"Control yeast 3 (cacgcggcggcacgtg x3), 100 μM",−0.17
same,increase of induction,"Control yeast 4 (cacgcggcggcacgtg x4), 10 nM",−0.84
same,increase of induction,"Control yeast 4 (cacgcggcggcacgtg x4), 100 nM",−1.49
same,increase of induction,"Control yeast 4 (cacgcggcggcacgtg x4), 1 μM",−1.82
same,increase of induction,"Control yeast 4 (cacgcggcggcacgtg x4), 10 μM",−1.05
same,increase of induction,"Control yeast 4 (cacgcggcggcacgtg x4), 100 μM",−2.06
same,increase of induction,"Control yeast 7 (SEQ ID NO: 25 x4, different C-box), 100 nM",−0.42
same,increase of induction,"Control yeast 7 (SEQ ID NO: 25 x4, different C-box), 10 μM",−0.12
same,increase of induction,"Control yeast 8 (SEQ ID NO: 28 x4, different E-box), 100 nM",0.00
same,increase of induction,"Control yeast 8 (SEQ ID NO: 28 x4, different E-box), 10 μM",−0.02
same,increase of induction,"Control yeast 9 (SEQ ID NO: 31 x4, different C-box and E-box), 100 nM",−0.42
same,increase of induction,"Control yeast 9 (SEQ ID NO: 31 x4, different C-box and E-box), 10 μM",−0.12
same,increase of induction,"Yeast 1 of Invention (SEQ ID NO: 2 x1), 100 pM",0.10
same,increase of induction,"Yeast 1 of Invention (SEQ ID NO: 2 x1), 1 nM",0.08
same,increase of induction,"Yeast 2 of Invention (SEQ ID NO: 2 x2), 10 nM",0.54
same,increase of induction,"Yeast 2 of Invention (SEQ ID NO: 2 x2), 100 nM",1.26
same,increase of induction,"Yeast 2 of Invention (SEQ ID NO: 2 x2), 1 μM",1.45
same,increase of induction,"Yeast 2 of Invention (SEQ ID NO: 2 x2), 10 μM",1.64
same,increase of induction,"Yeast 2 of Invention (SEQ ID NO: 2 x2), 100 μM",1.57
same,increase of induction,"Yeast 3 of Invention (SEQ ID NO: 2 x3), 10 nM",2.05
same,increase of induction,"Yeast 3 of Invention (SEQ ID NO: 2 x3), 100 nM",4.35
same,increase of induction,"Yeast 3 of Invention (SEQ ID NO: 2 x3), 1 μM",4.45
same,increase of induction,"Yeast 3 of Invention (SEQ ID NO: 2 x3), 10 μM",4.07
same,increase of induction,"Yeast 3 of Invention (SEQ ID NO: 2 x3), 100 μM",4.29
same,increase of induction,"Yeast 4 of Invention (SEQ ID NO: 2 x4), 10 nM, Test Example 2",5.13
same,increase of induction,"Yeast 4 of Invention (SEQ ID NO: 2 x4), 100 nM, Test Example 2",7.55
same,increase of induction,"Yeast 4 of Invention (SEQ ID NO: 2 x4), 100 nM, Test Example 3",0.42
same,increase of induction,"Yeast 4 of Invention (SEQ ID NO: 2 x4), 1 μM, Test Example 2",7.12
same,increase of induction,"Yeast 4 of Invention (SEQ ID NO: 2 x4), 10 μM, Test Example 2",7.44
same,increase of induction,"Yeast 4 of Invention (SEQ ID NO: 2 x4), 10 μM, Test Example 3",0.51
same,increase of induction,"Yeast 4 of Invention (SEQ ID NO: 2 x4), 100 μM, Test Example 2",7.47
same,increase of induction,"Yeast 5 of Invention (SEQ ID NO: 2 x5), 10 nM",1.33
same,increase of induction,"Yeast 5 of Invention (SEQ ID NO: 2 x5), 100 nM",3.29
same,increase of induction,"Yeast 5 of Invention (SEQ ID NO: 2 x5), 1 μM",3.72
same,increase of induction,"Yeast 5 of Invention (SEQ ID NO: 2 x5), 10 μM",3.76
same,increase of induction,"Yeast 5 of Invention (SEQ ID NO: 2 x5), 100 μM",4.05
same,increase of induction,"Yeast 6 of Invention (SEQ ID NO: 5 x3), 10 nM",0.33
same,increase of induction,"Yeast 6 of Invention (SEQ ID NO: 5 x3), 100 nM",1.19
same,increase of induction,"Yeast 6 of Invention (SEQ ID NO: 5 x3), 1 μM",1.18
same,increase of induction,"Yeast 6 of Invention (SEQ ID NO: 5 x3), 10 μM",1.33
same,increase of induction,"Yeast 6 of Invention (SEQ ID NO: 5 x3), 100 μM",1.33
same,increase of induction,"Yeast 7 of Invention (SEQ ID NO: 8 x3), 10 nM",0.06
same,increase of induction,"Yeast 7 of Invention (SEQ ID NO: 8 x3), 100 nM",0.26
same,increase of induction,"Yeast 7 of Invention (SEQ ID NO: 8 x3), 1 μM",0.32
same,increase of induction,"Yeast 7 of Invention (SEQ ID NO: 8 x3), 10 μM",0.36
same,increase of induction,"Yeast 7 of Invention (SEQ ID NO: 8 x3), 100 μM",0.34
same,increase of induction,"Yeast 9 of Invention (SEQ ID NO: 34 x1), 100 nM",0.19
same,increase of induction,"Yeast 9 of Invention (SEQ ID NO: 34 x1), 10 μM",0.16
same,increase of induction,"Yeast 10 of Invention (SEQ ID NO: 34 x2), 100 nM",0.08
same,increase of induction,"Yeast 10 of Invention (SEQ ID NO: 34 x2), 10 μM",0.20
same,increase of induction,"Yeast 11 of Invention (SEQ ID NO: 34 x3), 100 nM",0.22
same,increase of induction,"Yeast 11 of Invention (SEQ ID NO: 34 x3), 10 μM",0.24
same,increase of induction,"Yeast 12 of Invention (SEQ ID NO: 34 x4), 100 nM",1.43
same,increase of induction,"Yeast 12 of Invention (SEQ ID NO: 34 x4), 10 μM",2.55
same,increase of induction,"Yeast 13 of Invention (SEQ ID NO: 34 x5), 10 μM",0.09
same,increase of induction,"Yeast 14 of Invention (SEQ ID NO: 8 x1), 10 μM",0.09
same,increase of induction,"Yeast 15 of Invention (SEQ ID NO: 8 x2), 100 nM",0.09
same,increase of induction,"Yeast 15 of Invention (SEQ ID NO: 8 x2), 10 μM",0.16
same,increase of induction,"Yeast 16 of Invention (SEQ ID NO: 8 x4), 100 nM",0.65
same,increase of induction,"Yeast 16 of Invention (SEQ ID NO: 8 x4), 10 μM",1.32
same,increase of induction,"Yeast 17 of Invention (SEQ ID NO: 37 x1), 100 nM",0.06
same,increase of induction,"Yeast 17 of Invention (SEQ ID NO: 37 x1), 10 μM",0.09
same,increase of induction,"Yeast 18 of Invention (SEQ ID NO: 37 x2), 100 nM",0.10
same,increase of induction,"Yeast 19 of Invention (SEQ ID NO: 37 x3), 100 nM",1.53
same,increase of induction,"Yeast 19 of Invention (SEQ ID NO: 37 x3), 10 μM",2.27
same,increase of induction,"Yeast 20 of Invention (SEQ ID NO: 37 x4), 100 nM",1.55
same,increase of induction,"Yeast 20 of Invention (SEQ ID NO: 37 x4), 10 μM",1.85
same,increase of induction,"Yeast 25 of Invention (SEQ ID NO: 43 x1), 100 nM",0.06
same,increase of induction,"Yeast 25 of Invention (SEQ ID NO: 43 x1), 10 μM",0.15
same,increase of induction,"Yeast 26 of Invention (SEQ ID NO: 43 x2), 100 nM",0.35
same,increase of induction,"Yeast 26 of Invention (SEQ ID NO: 43 x2), 10 μM",0.38
same,increase of induction,"Yeast 27 of Invention (SEQ ID NO: 43 x3), 100 nM",0.03
same,increase of induction,"Yeast 27 of Invention (SEQ ID NO: 43 x3), 10 μM",0.64
same,increase of induction,"Yeast 28 of Invention (SEQ ID NO: 43 x4), 100 nM",1.87
same,increase of induction,"Yeast 28 of Invention (SEQ ID NO: 43 x4), 10 μM",2.51
same,increase of induction,"Yeast 29 of Invention (SEQ ID NO: 46 x1), 100 nM",0.07
same,increase of induction,"Yeast 29 of Invention (SEQ ID NO: 46 x1), 10 μM",0.07
same,increase of induction,"Yeast 30 of Invention (SEQ ID NO: 46 x2), 100 nM",0.16
same,increase of induction,"Yeast 30 of Invention (SEQ ID NO: 46 x2), 10 μM",0.07
same,increase of induction,"Yeast 31 of Invention (SEQ ID NO: 46 x3), 100 nM",0.09
same,increase of induction,"Yeast 31 of Invention (SEQ ID NO: 46 x3), 10 μM",0.23
same,increase of induction,"Yeast 32 of Invention (SEQ ID NO: 49 x1), 100 nM",0.11
same,increase of induction,"Yeast 32 of Invention (SEQ ID NO: 49 x1), 10 μM",0.31
same,increase of induction,"Yeast 33 of Invention (SEQ ID NO: 49 x2), 100 nM",0.42
same,increase of induction,"Yeast 33 of Invention (SEQ ID NO: 49 x2), 10 μM",0.22
same,increase of induction,"Yeast 34 of Invention (SEQ ID NO: 49 x3), 100 nM",0.66
same,increase of induction,"Yeast 34 of Invention (SEQ ID NO: 49 x3), 10 μM",2.15
same,increase of induction,"Yeast 35 of Invention (SEQ ID NO: 49 x4), 100 nM",1.44
same,increase of induction,"Yeast 35 of Invention (SEQ ID NO: 49 x4), 10 μM",1.05
